Assays:
Test in all cases: biochemical
Type in all cases: biochemical
382 unique human kinases [1] = biological target: T1, 382 unique human kinases (Homo sapiens, UniProt Q16816); conditions: kinase PHKg1, compound 10 uM; for remaining activity at 10 µM: read-out: % Enzyme Activity (relative to DMSO controls)
T1 construct: purchased Reaction Biology (HotSpot contract assay)

382 unique human kinases [2] = biological target: T2, 382 unique human kinases (Homo sapiens, UniProt Q15139); conditions: PKCmu/PRKD1, 10 uM; for remaining activity at 10 µM: read-out: % Enzyme Activity (relative to DMSO controls)
T2 construct: purchased Reaction Biology (HotSpot contract assay)
T2 sequence (Q15139 1-912): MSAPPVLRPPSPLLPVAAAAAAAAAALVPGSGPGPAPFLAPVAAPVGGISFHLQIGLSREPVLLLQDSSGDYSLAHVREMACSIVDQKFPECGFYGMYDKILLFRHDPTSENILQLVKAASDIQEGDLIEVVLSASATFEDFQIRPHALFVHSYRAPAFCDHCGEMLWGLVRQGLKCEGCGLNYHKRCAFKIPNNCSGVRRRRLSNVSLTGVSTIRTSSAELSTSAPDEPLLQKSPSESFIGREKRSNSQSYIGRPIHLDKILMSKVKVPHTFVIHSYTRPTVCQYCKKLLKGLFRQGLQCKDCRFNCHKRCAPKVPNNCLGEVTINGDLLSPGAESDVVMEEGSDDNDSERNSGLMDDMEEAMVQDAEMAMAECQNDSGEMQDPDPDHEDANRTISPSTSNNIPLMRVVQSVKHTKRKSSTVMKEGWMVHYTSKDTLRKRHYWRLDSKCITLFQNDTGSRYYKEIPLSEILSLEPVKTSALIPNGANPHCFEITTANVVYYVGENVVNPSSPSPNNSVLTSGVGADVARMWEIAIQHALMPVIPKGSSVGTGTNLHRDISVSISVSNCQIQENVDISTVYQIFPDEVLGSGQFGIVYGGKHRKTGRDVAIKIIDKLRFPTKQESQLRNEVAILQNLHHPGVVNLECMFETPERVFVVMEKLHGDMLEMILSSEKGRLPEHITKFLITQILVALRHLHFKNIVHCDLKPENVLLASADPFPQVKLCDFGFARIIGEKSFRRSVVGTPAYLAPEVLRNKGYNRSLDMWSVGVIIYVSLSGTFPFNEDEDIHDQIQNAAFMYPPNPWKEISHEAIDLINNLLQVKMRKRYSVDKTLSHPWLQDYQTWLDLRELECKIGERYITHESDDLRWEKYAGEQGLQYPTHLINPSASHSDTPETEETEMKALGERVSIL

382 unique human kinases [3] = biological target: T3, 382 unique human kinases (Homo sapiens, UniProt P36507); conditions: MEK2, 10 uM; for remaining activity at 10 µM: read-out: % Enzyme Activity (relative to DMSO controls)
T3 construct: purchased Reaction Biology (HotSpot contract assay)
T3 sequence (P36507 whole entry): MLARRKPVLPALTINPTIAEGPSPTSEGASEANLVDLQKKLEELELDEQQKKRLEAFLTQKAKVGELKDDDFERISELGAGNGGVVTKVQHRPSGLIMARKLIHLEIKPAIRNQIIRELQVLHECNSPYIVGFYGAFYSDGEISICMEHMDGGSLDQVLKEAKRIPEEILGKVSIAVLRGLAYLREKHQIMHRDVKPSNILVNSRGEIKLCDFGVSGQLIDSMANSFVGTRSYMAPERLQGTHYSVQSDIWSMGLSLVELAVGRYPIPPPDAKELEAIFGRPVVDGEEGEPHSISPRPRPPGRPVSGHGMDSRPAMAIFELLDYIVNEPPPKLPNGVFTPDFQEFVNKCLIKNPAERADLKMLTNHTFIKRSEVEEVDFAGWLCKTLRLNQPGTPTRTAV

382 unique human kinases [4] = biological target: T4, 382 unique human kinases (Homo sapiens, UniProt Q13043); conditions: MST1/STK4, 10 uM; for remaining activity at 10 µM: read-out: % Enzyme Activity (relative to DMSO controls)
T4 construct: purchased Reaction Biology (HotSpot contract assay)
T4 sequence (Q13043 1-487): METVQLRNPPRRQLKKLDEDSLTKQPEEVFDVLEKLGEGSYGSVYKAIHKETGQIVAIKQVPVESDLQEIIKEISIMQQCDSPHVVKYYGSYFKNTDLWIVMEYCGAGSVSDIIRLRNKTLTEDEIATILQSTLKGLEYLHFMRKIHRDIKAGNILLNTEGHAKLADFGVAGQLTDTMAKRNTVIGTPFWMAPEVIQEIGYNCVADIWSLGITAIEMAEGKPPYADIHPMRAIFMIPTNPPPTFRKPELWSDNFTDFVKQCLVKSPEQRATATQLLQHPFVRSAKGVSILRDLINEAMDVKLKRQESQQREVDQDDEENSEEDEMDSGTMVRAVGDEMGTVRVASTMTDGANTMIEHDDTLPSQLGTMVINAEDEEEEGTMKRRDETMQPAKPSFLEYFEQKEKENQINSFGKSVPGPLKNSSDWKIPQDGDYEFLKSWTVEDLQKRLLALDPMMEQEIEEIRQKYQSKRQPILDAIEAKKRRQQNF

382 unique human kinases [5] = biological target: T5, 382 unique human kinases (Homo sapiens, UniProt P00533, C797S); conditions: EGFR (C797S), 10 uM; for remaining activity at 10 µM: read-out: % Enzyme Activity (relative to DMSO controls)
T5 construct: purchased Reaction Biology (HotSpot contract assay)

382 unique human kinases [6] = biological target: T6, 382 unique human kinases (Homo sapiens, UniProt P21802, K641R); conditions: FGFR2 (K641R), 10 uM; for remaining activity at 10 µM: read-out: % Enzyme Activity (relative to DMSO controls)
T6 construct: purchased Reaction Biology (HotSpot contract assay)
T6 sequence (P21802 22-821 K641R): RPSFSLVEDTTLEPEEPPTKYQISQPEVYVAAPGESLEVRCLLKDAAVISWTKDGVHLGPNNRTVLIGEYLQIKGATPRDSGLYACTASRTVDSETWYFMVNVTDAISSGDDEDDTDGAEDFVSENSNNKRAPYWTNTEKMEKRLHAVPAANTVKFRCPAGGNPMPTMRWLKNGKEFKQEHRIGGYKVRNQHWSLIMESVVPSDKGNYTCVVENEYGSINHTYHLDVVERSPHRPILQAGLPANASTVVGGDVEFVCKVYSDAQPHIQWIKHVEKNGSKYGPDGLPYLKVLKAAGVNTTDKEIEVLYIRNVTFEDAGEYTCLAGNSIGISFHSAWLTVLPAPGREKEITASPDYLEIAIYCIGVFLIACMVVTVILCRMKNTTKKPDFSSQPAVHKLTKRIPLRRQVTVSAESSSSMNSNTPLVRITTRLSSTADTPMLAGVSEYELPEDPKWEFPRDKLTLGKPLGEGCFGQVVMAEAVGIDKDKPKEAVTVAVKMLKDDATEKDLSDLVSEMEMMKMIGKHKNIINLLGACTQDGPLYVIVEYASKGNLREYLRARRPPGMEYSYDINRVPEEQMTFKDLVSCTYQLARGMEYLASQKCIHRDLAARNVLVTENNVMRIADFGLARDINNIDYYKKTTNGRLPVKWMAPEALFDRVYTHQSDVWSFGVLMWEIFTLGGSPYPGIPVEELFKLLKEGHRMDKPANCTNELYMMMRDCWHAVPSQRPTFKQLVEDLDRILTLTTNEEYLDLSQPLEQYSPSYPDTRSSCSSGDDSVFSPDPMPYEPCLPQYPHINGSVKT

382 unique human kinases [7] = biological target: T7, 382 unique human kinases (Homo sapiens, UniProt O00506); conditions: STK25/YSK1, compound at 10 uM, duplicate values; for remaining activity at 10 µM: read-out: % Enzyme Activity (relative to DMSO controls)
T7 construct: purchased Reaction Biology (HotSpot contract assay)
T7 sequence (O00506 whole entry): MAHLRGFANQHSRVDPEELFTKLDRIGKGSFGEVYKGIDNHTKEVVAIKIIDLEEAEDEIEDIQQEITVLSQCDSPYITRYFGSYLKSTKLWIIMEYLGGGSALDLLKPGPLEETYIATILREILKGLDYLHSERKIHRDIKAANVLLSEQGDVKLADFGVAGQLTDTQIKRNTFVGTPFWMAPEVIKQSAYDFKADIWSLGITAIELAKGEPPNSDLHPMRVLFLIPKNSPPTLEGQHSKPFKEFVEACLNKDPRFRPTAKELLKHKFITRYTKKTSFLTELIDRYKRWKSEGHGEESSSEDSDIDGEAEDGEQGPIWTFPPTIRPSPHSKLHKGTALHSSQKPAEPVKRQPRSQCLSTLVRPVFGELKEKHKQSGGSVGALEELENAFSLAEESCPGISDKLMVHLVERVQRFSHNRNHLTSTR

382 unique human kinases [8] = biological target: T8, 382 unique human kinases (Homo sapiens, UniProt Q04759); conditions: PKCtheta, compound at 10 uM, duplicate values; for remaining activity at 10 µM: read-out: % Enzyme Activity (relative to DMSO controls)
T8 construct: purchased Reaction Biology (HotSpot contract assay)
T8 sequence (Q04759 whole entry): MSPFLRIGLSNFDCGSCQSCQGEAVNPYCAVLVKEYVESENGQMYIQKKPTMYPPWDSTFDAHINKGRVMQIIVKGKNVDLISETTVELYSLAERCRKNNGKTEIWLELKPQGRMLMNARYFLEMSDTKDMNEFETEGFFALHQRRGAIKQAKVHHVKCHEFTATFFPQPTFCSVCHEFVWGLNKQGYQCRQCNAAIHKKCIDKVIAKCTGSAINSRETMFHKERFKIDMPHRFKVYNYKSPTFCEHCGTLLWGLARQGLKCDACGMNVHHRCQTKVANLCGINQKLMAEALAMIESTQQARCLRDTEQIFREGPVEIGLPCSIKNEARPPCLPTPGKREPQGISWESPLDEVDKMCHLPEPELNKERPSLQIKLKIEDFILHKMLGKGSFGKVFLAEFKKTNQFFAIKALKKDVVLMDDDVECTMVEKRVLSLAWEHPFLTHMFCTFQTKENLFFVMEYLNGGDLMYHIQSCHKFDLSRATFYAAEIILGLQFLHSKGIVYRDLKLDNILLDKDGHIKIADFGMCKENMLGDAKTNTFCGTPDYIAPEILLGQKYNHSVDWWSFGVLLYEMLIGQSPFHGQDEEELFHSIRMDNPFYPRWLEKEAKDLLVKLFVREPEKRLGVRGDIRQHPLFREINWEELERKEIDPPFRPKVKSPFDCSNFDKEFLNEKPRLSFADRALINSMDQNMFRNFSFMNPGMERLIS

382 unique human kinases [9] = biological target: T9, 382 unique human kinases (Homo sapiens, UniProt Q13882); conditions: BRK, 10 uM; for remaining activity at 10 µM: read-out: % Enzyme Activity (relative to DMSO controls)
T9 construct: purchased Reaction Biology (HotSpot contract assay)
T9 sequence (Q13882 whole entry): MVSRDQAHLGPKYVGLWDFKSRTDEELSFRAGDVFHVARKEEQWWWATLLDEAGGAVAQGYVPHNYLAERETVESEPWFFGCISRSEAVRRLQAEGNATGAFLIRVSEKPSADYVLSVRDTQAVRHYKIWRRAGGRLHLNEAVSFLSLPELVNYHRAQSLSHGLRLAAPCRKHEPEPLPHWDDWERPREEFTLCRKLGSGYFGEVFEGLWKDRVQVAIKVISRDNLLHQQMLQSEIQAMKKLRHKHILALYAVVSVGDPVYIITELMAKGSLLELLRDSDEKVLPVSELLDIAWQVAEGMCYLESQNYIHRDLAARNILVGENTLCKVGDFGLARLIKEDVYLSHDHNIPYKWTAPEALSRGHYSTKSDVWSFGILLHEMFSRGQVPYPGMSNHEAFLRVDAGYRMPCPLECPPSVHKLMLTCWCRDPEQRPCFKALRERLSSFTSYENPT

382 unique human kinases [10] = biological target: T10, 382 unique human kinases (Homo sapiens, UniProt P23458); conditions: JAK1, 10 uM; for remaining activity at 10 µM: read-out: % Enzyme Activity (relative to DMSO controls)
T10 construct: purchased Reaction Biology (HotSpot contract assay)
T10 sequence (P23458 whole entry): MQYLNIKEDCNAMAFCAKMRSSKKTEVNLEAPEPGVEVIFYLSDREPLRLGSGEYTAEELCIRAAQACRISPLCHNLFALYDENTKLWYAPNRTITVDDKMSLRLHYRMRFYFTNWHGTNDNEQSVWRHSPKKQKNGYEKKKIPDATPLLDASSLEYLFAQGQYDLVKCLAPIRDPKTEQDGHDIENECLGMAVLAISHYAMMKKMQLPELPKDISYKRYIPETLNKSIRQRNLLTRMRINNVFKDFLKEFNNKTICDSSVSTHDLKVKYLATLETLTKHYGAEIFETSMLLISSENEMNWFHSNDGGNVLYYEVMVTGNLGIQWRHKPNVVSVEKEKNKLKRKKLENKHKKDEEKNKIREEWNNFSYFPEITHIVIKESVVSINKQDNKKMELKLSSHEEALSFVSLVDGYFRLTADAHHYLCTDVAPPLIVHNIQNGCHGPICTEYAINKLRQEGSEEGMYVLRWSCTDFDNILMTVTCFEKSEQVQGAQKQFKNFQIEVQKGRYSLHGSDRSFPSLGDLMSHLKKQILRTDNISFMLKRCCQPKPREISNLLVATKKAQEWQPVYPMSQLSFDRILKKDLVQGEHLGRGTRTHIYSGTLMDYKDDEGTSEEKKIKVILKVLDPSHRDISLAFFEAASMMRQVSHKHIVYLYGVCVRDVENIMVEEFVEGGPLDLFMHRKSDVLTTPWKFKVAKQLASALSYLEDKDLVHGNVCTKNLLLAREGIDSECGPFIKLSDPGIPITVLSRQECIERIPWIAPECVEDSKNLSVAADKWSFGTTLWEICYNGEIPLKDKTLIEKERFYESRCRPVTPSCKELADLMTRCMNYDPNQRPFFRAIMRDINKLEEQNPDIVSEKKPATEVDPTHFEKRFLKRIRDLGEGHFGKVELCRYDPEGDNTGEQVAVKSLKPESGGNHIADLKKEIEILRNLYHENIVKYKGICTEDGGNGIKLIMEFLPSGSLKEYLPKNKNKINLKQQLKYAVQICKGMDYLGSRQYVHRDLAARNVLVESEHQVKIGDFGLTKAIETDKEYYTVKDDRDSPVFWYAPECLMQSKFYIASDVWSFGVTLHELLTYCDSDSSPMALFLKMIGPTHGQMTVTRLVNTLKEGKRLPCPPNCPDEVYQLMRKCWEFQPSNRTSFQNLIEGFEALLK

T1 sequence (Q16816 whole entry): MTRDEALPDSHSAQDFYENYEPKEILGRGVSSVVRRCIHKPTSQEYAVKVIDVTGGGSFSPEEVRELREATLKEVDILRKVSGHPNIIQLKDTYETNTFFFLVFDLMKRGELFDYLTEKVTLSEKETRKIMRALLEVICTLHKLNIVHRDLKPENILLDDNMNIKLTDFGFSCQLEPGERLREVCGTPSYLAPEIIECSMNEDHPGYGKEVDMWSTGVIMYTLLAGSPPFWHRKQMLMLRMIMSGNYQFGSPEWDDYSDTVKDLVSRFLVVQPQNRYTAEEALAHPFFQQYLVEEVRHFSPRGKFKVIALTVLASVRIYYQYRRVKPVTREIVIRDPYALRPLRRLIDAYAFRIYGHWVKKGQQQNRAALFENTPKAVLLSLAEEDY

Structure (SMILES) | remaining activity at 10 µM (382 unique human kinases [1]) | remaining activity at 10 µM (382 unique human kinases [2]) | remaining activity at 10 µM (382 unique human kinases [3]) | remaining activity at 10 µM (382 unique human kinases [4]) | remaining activity at 10 µM (382 unique human kinases [5]) | remaining activity at 10 µM (382 unique human kinases [6]) | remaining activity at 10 µM (382 unique human kinases [7]) | remaining activity at 10 µM (382 unique human kinases [8]) | remaining activity at 10 µM (382 unique human kinases [9]) | % Enzyme Activity (relative to DMSO controls) (382 unique human kinases [10]) | remaining activity at 10 µM (382 unique human kinases [10]) | % Enzyme Activity (relative to DMSO controls) (382 unique human kinases [1]) | % Enzyme Activity (relative to DMSO controls) (382 unique human kinases [2]) | % Enzyme Activity (relative to DMSO controls) (382 unique human kinases [3]) | % Enzyme Activity (relative to DMSO controls) (382 unique human kinases [4]) | % Enzyme Activity (relative to DMSO controls) (382 unique human kinases [5]) | % Enzyme Activity (relative to DMSO controls) (382 unique human kinases [6]) | % Enzyme Activity (relative to DMSO controls) (382 unique human kinases [7]) | % Enzyme Activity (relative to DMSO controls) (382 unique human kinases [8]) | % Enzyme Activity (relative to DMSO controls) (382 unique human kinases [9])
CC(C)c1cc(-c2n[nH]c(=O)n2-c2ccc3c(ccn3C)c2)c(O)cc1O [Ganetespib (STA9090)] | 88.5% | 84% | 61.1% | 73.7% | 70.9% | 78% | 107% | 148% | 67.4% |  |  |  |  |  |  |  |  |  |  | 
CCNC(=O)c1noc(-c2cc(C(C)C)c(O)cc2O)c1-c1ccc(CN2CCOCC2)cc1 [Luminespib] |  |  |  |  |  |  |  |  |  | 94.10% | 96.1% |  |  |  |  |  |  |  |  | 
CCNC(=O)c1noc(-c2cc(C(C)C)c(O)cc2O)c1-c1ccc(CN2CCOCC2)cc1 [Luminespib (AUY-922)] | 98.2% | 86.5% | 99.5% | 103% | 103% | 98.4% | 110% | 102% | 84.8% |  |  | 96.94% | 86.44% | 98.43% | 101.81% | 99.85% | 98.16% | 107.24% | 101.70% | 83.67%
CC(C)c1cc(-c2n[nH]c(=O)n2-c2ccc3c(ccn3C)c2)c(O)cc1O [Ganetespib] |  |  |  |  |  |  |  |  |  |  | 95% |  |  |  |  |  |  |  |  | 
